Among the data in ChEMBL document CHEMBL5715937, “In vitro activity of Bcr-Abl inhibitors AMN107 and BMS-354825 against clinically relevant imatinib-resistant Abl kinase domain mutants” (Cancer Res, 2005) are Activity, IC50 and IC90 values, retold here.

In assay [1] the test system is BaF3. The assay can be described thus: Induction of apoptosis in mouse BaF3 cells expressing Bcr-Abl F359V mutant at 30 to 300 nM incubated for 72 hrs by Annexin V-phycoerythrin and 7-amino-actinomycin D staining based PCA instrument analysis. It is filed as functional, cell-based. The settings on record: dose 30-300 nM.
Assay [2] can be described thus: Inhibition of BCR-ABL Q252H mutant (unknown origin) expressed in mouse BaF3 cells assessed as inhibition of cell growth incubated for 72 hrs by […] CellTiter96 viability analysis.
Assay [3] relates to BaF3. The experiment in a line: Induction of apoptosis in mouse BaF3 cells expressing Bcr-Abl H396P mutant assessed as increase in apoptotic cells at 1500 nM incubated for 72 hrs by Annexin V-phycoerythrin and 7-amino-actinomycin D staining based PCA instrument analysis relative to control. The class given is functional.
The nature of assay [4]: Inhibition of BCR-ABL H396P mutant (unknown origin) expressed in mouse BaF3 cells assessed as inhibition of tyrosine phosphorylation incubated for 3 hrs by immunoblotting analysis. It is filed as cell-based. The settings on record: BaF3, 3 h. In general terms: A western blot detects proteins with antibodies after separation by electrophoresis.

The source made the active and inactive calls. The rule behind the calls is not given here. Where only a bound is given, the exact number is not on record here.

Take `Cc1cn(-c2cc(NC(=O)c3ccc(C)c(Nc4nccc(-c5cccnc5)n4)c3)cc(C(F)(F)F)c2)cn1` [NILOTINIB]: the outcome in the assay with BaF3 [1] was Active. For the same compound, the IC50 (commonly the midpoint of a concentration-inhibition curve) amounted to 70 nM in assay [2] (BaF3, 72 h) and 70 nM in assay [4]. The IC90 (commonly the point of the concentration-response curve where the effect stands at 90%) in assay [2] (BaF3, time 72 hrs, condition chronic myelogenous leukemia) was found to be 156 nM. For the same compound, in the assay with BaF3 [3], the Activity was >90%.
